Measured values: ChEMBL document CHEMBL1201862, “PubChem BioAssay data set” (2004)
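Protocol summary: plate cells (96-well), add compound at 5 concentrations, incubate 48 h, interpolate endpoints linearly. GI50 is the concentration that inhibits growth by half.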 Calls of active or inactive are those of the source. Cut-off read from the data, not from the text of the source: active = GI50 up to about 1.1 µM and inactive = higher.

What was measured:
Assay in all cases: inhibition of tumour cell growth, NCI panel, 48 h
DMS-114 = tested on: DMS-114
HCT-116 = tested on: HCT-116
HCT-15 = tested on: HCT-15
HT-29 = tested on: HT-29
NCI-H23 = tested on: NCI-H23
NCI-H460 = tested on: NCI-H460
SK-MEL-28 = tested on: SK-MEL-28
SK-OV-3 = tested on: SK-OV-3
SN12C = tested on: SN12C
SNB-19 = tested on: SNB-19
SR = tested on: SR
TK-10 = tested on: TK-10
U-251 = tested on: U-251
UACC-257 = tested on: UACC-257
A549 = tested on: A549
A498 = tested on: A498
CAKI-1 = tested on: CAKI-1

Compound | GI50 (DMS-114) | GI50 (HCT-116) | GI50 (HCT-15) [µM] | GI50 (HT-29) | GI50 (NCI-H23) | GI50 (NCI-H460) | GI50 (SK-MEL-28) | GI50 (SK-OV-3) | GI50 (SN12C) | GI50 (SNB-19) | GI50 (SR) | GI50 (TK-10) | GI50 (U-251) | GI50 (UACC-257) | GI50 (A549) | GI50 (A498) | GI50 (CAKI-1)
COc1cc2c(cc1OC)C(C#N)(Cc1ccccc1)N(C(=O)c1ccccc1)C=C2 (stereo not drawn) | 17.6 µM (inactive) | 50.9 µM (inactive) | 38.8 | 60.8 µM (inactive) | 75.7 µM (inactive) | 46.3 µM (inactive) | > 100 µM (inactive) | 75.3 µM (inactive) | > 100 µM (inactive) | > 100 µM (inactive) | 45.7 µM (inactive) | > 100 µM (inactive) | > 100 µM (inactive) | 50.6 µM (inactive) |  |  | 
ClC1=C(Cl)C(Cl)(Cl)c2c3c(c4c(c21)C(Cl)(Cl)C(Cl)=C4Cl)C(Cl)(Cl)C(Cl)=C3Cl | > 100 µM (inactive) | > 100 µM (inactive) | > 100 | > 100 µM (inactive) | > 100 µM (inactive) | > 100 µM (inactive) | > 100 µM (inactive) | > 100 µM (inactive) | > 100 µM (inactive) | > 100 µM (inactive) | > 100 µM (inactive) |  | > 100 µM (inactive) | > 100 µM (inactive) | > 100 µM (inactive) |  | 
CC(C)(C)c1ccc2c(c1)S(=O)(=O)Nc1ccccc1NS(=O)(=O)c1cc(C(C)(C)C)ccc1OCCOCCOCCO2 | > 100 µM (inactive) | > 100 µM (inactive) | > 100 | > 100 µM (inactive) | > 100 µM (inactive) | > 100 µM (inactive) | > 100 µM (inactive) | 81.1 µM (inactive) | > 100 µM (inactive) | > 100 µM (inactive) |  | > 100 µM (inactive) | 88.5 µM (inactive) | > 100 µM (inactive) | > 100 µM (inactive) | 52.5 µM (inactive) | 97.9 µM (inactive)
CN(C)c1ccc(N=O)c(O)c1.CN(C)c1ccc(N=O)c(O)c1.[SiH4] | 3.72 µM (inactive) | 6.5 µM (inactive) |  | 6.67 µM (inactive) | 10.1 µM (inactive) |  | 13.2 µM (inactive) | 20.7 µM (inactive) | 12 µM (inactive) | 17.3 µM (inactive) | 11 µM (inactive) | 14.1 µM (inactive) | 8.09 µM (inactive) | 14 µM (inactive) | 12.4 µM (inactive) | 21.3 µM (inactive) | 8.55 µM (inactive)
O=C1c2ccccc2C2(O)c3cc4ccccc4cc3OC12O (stereo not drawn) | 25.1 µM (inactive) | 69 µM (inactive) | 53.2 | > 100 µM (inactive) | 55.6 µM (inactive) | 76.7 µM (inactive) | 59.3 µM (inactive) | > 100 µM (inactive) | 92.5 µM (inactive) | 31.2 µM (inactive) |  | > 100 µM (inactive) | 54.7 µM (inactive) | 30 µM (inactive) | 44.4 µM (inactive) | > 100 µM (inactive) | 62.7 µM (inactive)
CCSc1nc(-c2ccc(OC)cc2)c(C#N)c(=O)n1C1OCC(OC(C)=O)C(OC(C)=O)C1OC(C)=O (stereo not drawn) | 72.4 µM (inactive) | > 100 µM (inactive) | > 100 | > 100 µM (inactive) | 94.6 µM (inactive) | > 100 µM (inactive) | > 100 µM (inactive) | > 100 µM (inactive) | > 100 µM (inactive) | > 100 µM (inactive) | > 100 µM (inactive) | > 100 µM (inactive) | > 100 µM (inactive) | > 100 µM (inactive) | > 100 µM (inactive) | > 100 µM (inactive) | > 100 µM (inactive)
CC(C)c1cccc(C(C)C)c1N1C(=O)C(=O)C(c2nc3ccccc3o2)C(=O)C1=O | 24.5 µM (inactive) | 25.8 µM (inactive) | 49.7 | 30.3 µM (inactive) | 29.6 µM (inactive) | > 100 µM (inactive) | 32.7 µM (inactive) | > 100 µM (inactive) | > 100 µM (inactive) | > 100 µM (inactive) |  | > 100 µM (inactive) | > 100 µM (inactive) | > 100 µM (inactive) | > 100 µM (inactive) | > 100 µM (inactive) | 40.5 µM (inactive)
CC(=O)NN1C(=O)C(Cc2ccccc2)c2ccccc21 (stereo not drawn) | > 100 µM (inactive) | > 100 µM (inactive) | > 100 | > 100 µM (inactive) | > 100 µM (inactive) | > 100 µM (inactive) | > 100 µM (inactive) | > 100 µM (inactive) | > 100 µM (inactive) | > 100 µM (inactive) |  | > 100 µM (inactive) | > 100 µM (inactive) | > 100 µM (inactive) | > 100 µM (inactive) | > 100 µM (inactive) | > 100 µM (inactive)
COc1ccc(C(=O)O/N=C2/CCC/C2=C\c2ccccc2)cc1 | > 100 µM (inactive) | > 100 µM (inactive) | > 100 | > 100 µM (inactive) | > 100 µM (inactive) | > 100 µM (inactive) | > 100 µM (inactive) | > 100 µM (inactive) | > 100 µM (inactive) | > 100 µM (inactive) | > 100 µM (inactive) | > 91.6 µM (inactive) | > 70.3 µM (inactive) | > 100 µM (inactive) | > 100 µM (inactive) | > 100 µM (inactive) | > 100 µM (inactive)
CC(=O)OCC1OC(n2c(-c3ccc(N)cc3)cc(-c3ccco3)c(C#N)c2=O)C(OC(C)=O)C(OC(C)=O)C1OC(C)=O (stereo not drawn) | 2.64 µM (inactive) | 2.3 µM (inactive) | > 50 | > 50 µM (inactive) | 26 µM (inactive) |  | > 50 µM (inactive) | > 50 µM (inactive) | > 50 µM (inactive) | > 50 µM (inactive) | > 50 µM (inactive) | > 50 µM (inactive) | 7.06 µM (inactive) | > 50 µM (inactive) | 15.6 µM (inactive) | > 50 µM (inactive) | > 50 µM (inactive)
COC1=CC(O)(CC(N)=O)c2ccccc2C1=O (stereo not drawn) | > 100 µM (inactive) | > 100 µM (inactive) | > 100 | > 100 µM (inactive) |  | > 100 µM (inactive) | > 100 µM (inactive) | > 100 µM (inactive) | > 100 µM (inactive) | > 100 µM (inactive) | > 100 µM (inactive) | > 100 µM (inactive) | > 100 µM (inactive) | > 100 µM (inactive) | > 100 µM (inactive) | > 100 µM (inactive) | > 100 µM (inactive)
O=C1CCCCC1CN1CCCC1 (stereo not drawn) | > 100 µM (inactive) | > 100 µM (inactive) | > 100 | > 100 µM (inactive) | > 100 µM (inactive) | > 100 µM (inactive) | > 100 µM (inactive) | > 100 µM (inactive) | > 100 µM (inactive) |  | 38.7 µM (inactive) | > 100 µM (inactive) | > 100 µM (inactive) | > 100 µM (inactive) | > 100 µM (inactive) | > 100 µM (inactive) | 
COC(=O)C1=C(SC)SC2(C(=O)OC)C3C=C(C)C4C(N13)C42C(=O)OC (stereo not drawn) | > 100 µM (inactive) | > 100 µM (inactive) | > 100 | > 100 µM (inactive) | > 100 µM (inactive) | > 100 µM (inactive) | > 100 µM (inactive) | > 100 µM (inactive) | > 100 µM (inactive) | > 100 µM (inactive) | > 100 µM (inactive) | > 100 µM (inactive) | > 100 µM (inactive) | > 100 µM (inactive) | > 100 µM (inactive) |  | > 100 µM (inactive)
Nc1ccc(C(=O)NN2C(=O)C(Cl)C2c2ccccc2)cc1 (stereo not drawn) | > 100 µM (inactive) | > 100 µM (inactive) | > 100 | > 100 µM (inactive) | > 100 µM (inactive) | > 100 µM (inactive) | > 100 µM (inactive) | > 100 µM (inactive) | > 100 µM (inactive) | > 100 µM (inactive) |  | > 100 µM (inactive) | > 100 µM (inactive) | > 100 µM (inactive) | > 100 µM (inactive) | > 100 µM (inactive) | > 100 µM (inactive)
O=C(Cc1nc2ccccc2o1)C(=O)Nc1ccc(Cl)cc1Cl | > 100 µM (inactive) | > 100 µM (inactive) | > 100 | > 100 µM (inactive) | > 100 µM (inactive) | > 100 µM (inactive) | > 100 µM (inactive) | > 100 µM (inactive) | > 100 µM (inactive) | > 100 µM (inactive) | 13.1 µM (inactive) |  | > 100 µM (inactive) | > 100 µM (inactive) | > 100 µM (inactive) | > 100 µM (inactive) | > 100 µM (inactive)
COc1cc(/C=C2/C(=O)N(C(=O)OCc3ccccc3)C(Cc3cc(OC)c(OC)c(C)c3OC)C(=O)N2Cc2ccccc2)c(OC)c(C)c1OC (stereo not drawn) | 54.6 µM (inactive) | 29.3 µM (inactive) |  | > 100 µM (inactive) | > 100 µM (inactive) | 3.52 µM (inactive) | > 100 µM (inactive) | > 100 µM (inactive) | > 100 µM (inactive) | > 100 µM (inactive) | 41.1 µM (inactive) | > 100 µM (inactive) | 33.1 µM (inactive) | 9.48 µM (inactive) | > 100 µM (inactive) | 88.7 µM (inactive) | > 100 µM (inactive)
N/C(=N\O)N/N=C\c1c2ccccc2c(Cl)c2ccccc12 | 3.19 µM (inactive) | 3.66 µM (inactive) | 5.82 | 3.78 µM (inactive) | 5.04 µM (inactive) | 2.23 µM (inactive) | 13.5 µM (inactive) | 2.57 µM (inactive) | 6.79 µM (inactive) | 11.9 µM (inactive) |  | 11.8 µM (inactive) | 7.5 µM (inactive) | 1.42 µM (inactive) | 2.99 µM (inactive) | 13.5 µM (inactive) | 5.52 µM (inactive)
